# Test results taken from patent US20130116224A1, “Method and Composition for Treatment of Tumors” (priority 2010, published 2013).
# Key:
# LNCaP [1] = test: In vitro anti-cancer efficacy study of CTC-96, ATCC recommended growth condition (protocol GP687), cell viability and proliferation assay (RFU); assay type: cell-based, human
# Description: (§1) B. In Vitro Anti-Cancer Efficacy Study of CTC-96 in Cell Lines Maintained in ATCC Recommended Growth Condition Using Approved Protocol GP687
# (§2) For example in FIG. 2C, on day 2 with 20 μg/mL CTC-96. […] This difference among the cell lines was quite consistent at all initial seeding densities except for the highest (100%). At the three lower density seedings, the decrease in relative fluorescence units (RFU) was in a near linear relationship with increase of CTC-96 dose for LNCaP and RWPE cells. Both cell types began to show a response to CTC-96 at 5 μg/mL. (see FIGS. 2 C and D).
# (§3) When cell proliferation data were obtained for all time points, the RFU reading on day 3 was considerably lower than the projected trend line as shown in FIG. 1. The possible cause was the variation in the incubation time as described in GP687 9.5.2.3. […] Due to time constraints, the incubation time carried out was shorter on day three than for the […]. The longer the incubation time, the greater the RFLI measured. Therefore, day 3 incubation data were not included in the analysis, see FIG. 2. […] Different cell density seedings allowed this study to maximally evaluate the anticancer efficacy of CTC-96. In vitro anticancer effectiveness can be categorized into: killing and inhibiting effects. High density seeding provides maximal numbers of cells to reveal the killing effect, which leads to extensive cell death with quick onset. Also high cell density sometimes provides some protection against cytotoxic effects. Low density seeding reduces the effects of contact inhibition in non-malignant cell lines and allows longer incubation with the drug. The longer treatment time allows observation of maximum inhibitory drug effects. In addition, low density cell seeding allows untreated cells to undergo several cell divisions.
# (§4) In this study, four seeding densities of 100%, 50%, 25% and 12.5% were planned for each cell line.
# Malme-3M [2] = test: as above; assay type: cell-based, human; conditions: day 2, 20 μg/mL CTC-96, FIG. 2C, ATCC recommended medium
# Description: as §1, §2, §3, §4
# RWPE-1 = test: CTC-96 7-day treatment in RPMI1640/2% FBS (GP689 modified) and confirmation study, cell viability and proliferation assay; assay type: cell-based
# Description: (§5) The study was performed as described in GP689 with modifications as follows:
# (§6) The cell growth and test media was RPM11640/2% FBS. All cell lines were acclimated in this low-serum condition for about two weeks prior to treatment with CTC-96. CTC-96 treatment was extended to 7 days from the 3 days previously used. Cell viability and proliferation was measured and medium was changed on day 0, 2, 4 and 7. Fresh CTC-96 added during every medium change. Incubation for cell viability and proliferation assay was performed for 2 hours.
# (§7) A new batch of all four test cell lines were acclimated in RPMII 640/2% FBS about 10 days prior to CTC-96 treatment. CTC-96 treatment started after […] of adaptation. A 96-well plate was used at the at the start of proliferation in an attempt to eliminate the peeling of LNCaP monolayers. A manual multichannel pipette was utilized to change medium on day 0. Peeling still occurred in one plate. That plate was arbitrarily assigned the last time point day 7 in order to have good plates of LNCaP for the first three time points in a row.
# (§8) For medium changes on days 2, 4 and 7, only half of the media was replaced to completely eliminate the peeling in LNCaP. This method was utilized for the other three cell lines in order to keep the entire test system consistent for all the cell lines. The replacement media contained 1×CTC-96 concentrations and therefore only half of CTC-96 was freshly replaced. Incubation for cell viability and proliferation assay was performed for strictly 2 hours. Allover proliferation was good for all cell lines (see FIG. 6). Untreated ENCaP cells became 100% confluent in all seeding conditions on day 7. […] 4.2.5.2.1.3. The day 4 RFU reading was chosen in the proliferation percentage analysis because the peeling off in LNCaP Day 7 plate led to decrease on RFU so much that the trendline of untreated cells turned downwards instead of plateauing in high density seeding, (see FIG. 6 Al 3). Decay of CTC-96 may occur over 7 days period and inhibition might be lowered towards the end of treatment. The upward turn of the trendline for malignant cell lines in 5 μg/mL may indicate this decay, (see FIG. 6 A2-3, CI-4). Malignant cell lines were more sensitive to CTC-96 than their sister normal cell lines.
# IMR 90 = test: as above; assay type: cell-based
# Description: as §5, §6, §7, §8
# LNCaP [3] = test: as above; assay type: cell-based, human
# Description: as §5, §6, §7, §8
# Malme-3M [4] = test: as above; assay type: cell-based, human
# Description: as §5, §6, §7, §8
# RWPE = test: In vitro anti-cancer efficacy study of CTC-96, ATCC recommended growth condition (protocol GP687), cell viability and proliferation assay (RFU); assay type: cell-based
# Description: as §1, §2, §3, §4
# IMR = test: as above; assay type: cell-based; conditions: day 2, 20 μg/mL CTC-96, FIG. 2C, ATCC recommended medium
# Description: as §1, §2, §3, §4
# [5] = 20 μg/mL CTC-96, day 2 vs day 0
# [6] = FIGS. 2C and D, lower density seedings
# [7] = day 2, 20 μg/mL CTC-96, FIG. 2C, ATCC recommended medium
smiles,measurement,setting,value
CC(/C=C(/C)[O-])=NCCN=C(C)/C=C(/C)[O-].Cc1ncc[nH]1.Cc1ncc[nH]1.[Br-].[Co+3] [CTC-96],killing effect (net cell loss),LNCaP [1]; [5],lower number of cell on day 2 than on day 0
same,concentration at which cells began to show a response,LNCaP [1]; [6],5 µg/mL
same,total cells in comparison to untreated controls,LNCaP [1]; [7],12%
same,total cells in comparison to untreated controls,Malme-3M [2],70%
same,proliferation,"RWPE-1; RWPE, 10 μg/mL CTC-96, RPMI1640/2% FBS, 7-day treatment",inhibited the proliferation
same,"inhibition (proliferation percentage, day 4 RFU)","RWPE-1; RWPE, 10 μg/mL, confirmation study, FIG. 7",lower degree of inhibition
same,proliferation,"RWPE-1; RWPE-1, 25% cell density, 5 t μm/mL","still proceeds proliferating, albeit, at a reduced rate"
same,proliferation,"RWPE-1; RWPE-1, 50% cell density, same drug concentration (5 μm/mL)",minimally affected
same,cell elimination (cell loss),"RWPE-1; RWPF-1 (non-malignant counterpart), seeding densities 50% and 25%, concentration that killed the malignant cell line",no cell loss
same,proliferation,"IMR 90; IMR 90, 5 μg/mL",continues proliferating
same,proliferation,"IMR 90; IMR, 10 μg/mL CTC-96, RPMI1640/2% FBS, 7-day treatment",inhibited the proliferation
same,"inhibition (proliferation percentage, day 4 RFU)","IMR 90; IMR, 10 μg/mL, confirmation study, FIG. 7",lower degree of inhibition
same,cell number relative to originally seeded,"LNCaP [3]; 5 μg/mL CTC-96, RPMI1640/2% FBS, 7-day treatment, FIG. 4A","almost no change, or even had fewer cells than originally seeded"
same,"inhibition (proliferation percentage, day 4 RFU)","LNCaP [3]; 5 μg/mL, confirmation study, FIG. 7",greater inhibition
same,proliferation,"LNCaP [3]; 25% cell density, 5 t μm/mL",proliferation completely ceases
same,proliferation diminished,"LNCaP [3]; 50% cell density, 5 μm/mL CTC-96, RPMI 1640/2% FBS",30-40%
same,decrease in cell number compared to un-treated controls,"LNCaP [3]; initial seeding densities of 50% and 25%, 5 μm/mL CTC-96",30-50%
same,proliferation,"Malme-3M [4]; Malme 3M, 1 μg/mL",ceases proliferating
same,cell elimination / proliferation,"Malme-3M [4]; Malme 3M, 5 μg/mL drug concentration","not killed, but stopped proliferating"
same,cell number relative to originally seeded,"Malme-3M [4]; Malme-3M, 5 μg/mL CTC-96, RPMI1640/2% FBS, 7-day treatment, FIG. 4C","almost no change, or even had fewer cells than originally seeded"
same,"inhibition (proliferation percentage, day 4 RFU)","Malme-3M [4]; Malme-3M, 5 μg/mL, confirmation study, FIG. 7",greater inhibition
same,killing effect (net cell loss),RWPE; [5],lower number of cell on day 2 than on day 0
same,concentration at which cells began to show a response,RWPE; [6],5 µg/mL
same,total cells in comparison to untreated controls,RWPE; [7],10%
same,total cells in comparison to untreated controls,IMR,72%
